Laboratory results from US11718620B2, “Method for treating a cancer mediated by abnormality of multi-kinases” (TransThera Sciences (Nanjing), Inc., priority 2016, dated 2023).

Experiments:
[1] = test system: OVCAR-3 ovarian cancer cells; assay: Cell proliferation, Cell Titer-Glo; format: cell-based; settings: Homo sapiens, 72 hours, read-out: Cellular inhibitory activity IC50 OVCAR-3
Experimental: (§1) Test method: The effect of compounds on cell proliferation of different cell lines was examined by Cell Titer-Glo method.
(§2) Each cell line was inoculated into a 96-well plate one day in advance, and after overnight incubation, drugs in different concentrations were added to a final concentration of 0-10000 nM, 3-5 folds dilution, for a total of 10 concentration points. After incubation for 72 hours, the mixture was added with Cell titer-Glo reagent equilibrated at room temperature, and shaken to incubation for 10 min, and then allowed to stand at room temperature for 2 min to stabilize the light signal. The multi-function microplate reader was used to read data from each well and analyze it.

[2] = test system: BT-549 breast cancer cells; assay: Cell proliferation, Cell Titer-Glo; format: cell-based; settings: Homo sapiens, 72 hours, read-out: Cellular inhibitory activity IC50 BT-549
Experimental: as §1, §2

[3] = test system: OVCAR-8 ovarian cancer cells; assay: Cell proliferation, Cell Titer-Glo; format: cell-based; settings: Homo sapiens, 72 hours, read-out: Cellular inhibitory activity IC50 OVCAR-8
Experimental: as §1, §2

[4] = test system: MDA-MB-468 breast cancer cells; assay: Cell proliferation, Cell Titer-Glo; format: cell-based; settings: Homo sapiens, 72 hours, read-out: Cellular inhibitory activity IC50 MDA-MB-468
Experimental: as §1, §2

[5] = test system: HCC1954 breast cancer cells; assay: Cell proliferation, Cell Titer-Glo; format: cell-based; settings: Homo sapiens, 72 hours, read-out: Cellular inhibitory activity IC50 HCC1954
Experimental: as §1, §2

[6] = test system: Caov-3 ovarian cancer cells; assay: Cell proliferation, Cell Titer-Glo; format: cell-based; settings: Homo sapiens, 72 hours, read-out: Cellular inhibitory activity IC50 Caov-3
Experimental: as §1, §2

[7] = test system: A549 Lung cancer cells; assay: Cell proliferation, Cell Titer-Glo; format: cell-based; settings: Homo sapiens, 72 hours, read-out: Cellular inhibitory activity IC50 A549
Experimental: as §1, §2

[8] = test system: Kasumi-1 Leukemic cells; assay: Cell proliferation, Cell Titer-Glo; format: cell-based; settings: Homo sapiens, 72 hours, read-out: Cellular inhibitory activity IC50 Kasumi-1
Experimental: as §1, §2

[9] = target: T1, Aurora B (Homo sapiens, UniProt Q96GD4); assay: Aurora B enzymatic activity test, FAM-labeled peptide, Caliper; format: biochemical; settings: FAM-labeled peptide substrate, read-out: Kinase-inhibiting activity IC50 Aurora B
T1 sequence (Q96GD4 whole entry): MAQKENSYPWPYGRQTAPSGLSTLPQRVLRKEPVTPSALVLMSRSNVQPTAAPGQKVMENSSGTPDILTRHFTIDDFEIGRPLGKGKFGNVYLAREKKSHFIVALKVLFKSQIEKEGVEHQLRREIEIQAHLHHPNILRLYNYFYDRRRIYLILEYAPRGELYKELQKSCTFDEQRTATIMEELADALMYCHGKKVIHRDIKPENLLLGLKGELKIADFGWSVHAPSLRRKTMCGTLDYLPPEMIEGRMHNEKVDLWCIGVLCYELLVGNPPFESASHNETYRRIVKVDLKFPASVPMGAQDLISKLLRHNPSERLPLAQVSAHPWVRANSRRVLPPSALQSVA
Experimental: (§3) Test samples: Compounds in the present invention (the sequence numbers and structures thereof are shown in Table 1), dilution concentration: 0.03 μM-3 μM, a total of 10 concentration gradients.
(§4) Test method: enzymatic activity tests of Aurora kinase (including Aurora A and Aurora B) and VEGFR2 (KDR) were performed using a multi-function microplate reader.
(§5) a) 96-well plates, 10 dose groups, 3-fold serial dilutions, each well was added with DMSO, maximal concentration of 500 μM (50-fold compound).
(§6) b) 384-well plates, diluted with 1× kinase buffer (50 mM HEPES, pH 7.5; 0.0015% Brij-35; 2 mM DTT), each well containing 5× compound dissolved in 5 μL of 10% DMSO. Each well of the negative control contains 5 μL of 1× kinase buffer containing 10% DMSO.
(§7) Aurora A, Aurora B and KDR were dissolved in 1× kinase buffer and prepared as a 2.5× enzyme solution. After the compound in various concentrations was reacted with 2.5× enzyme solution at room temperature for 10 min, the FAM-labeled peptide substrate and ATP were added to initiate reaction. After incubation for 40 minutes, 25 μL of terminal solution (100 mM HEPES, pH 7.5; 0.015% Brij-35; 0.2% Coating Reagent #3; 50 mM EDTA) was added to stop the reaction, and the final data were read by Caliper.

[10] = target: T2, KDR(VEGFR2) (Homo sapiens, UniProt P35968); assay: KDR enzymatic activity test, FAM-labeled peptide, Caliper; format: biochemical; settings: FAM-labeled peptide substrate, read-out: Kinase-inhibiting activity IC50 KDR(VEGFR2)
T2 sequence (P35968 20-1356): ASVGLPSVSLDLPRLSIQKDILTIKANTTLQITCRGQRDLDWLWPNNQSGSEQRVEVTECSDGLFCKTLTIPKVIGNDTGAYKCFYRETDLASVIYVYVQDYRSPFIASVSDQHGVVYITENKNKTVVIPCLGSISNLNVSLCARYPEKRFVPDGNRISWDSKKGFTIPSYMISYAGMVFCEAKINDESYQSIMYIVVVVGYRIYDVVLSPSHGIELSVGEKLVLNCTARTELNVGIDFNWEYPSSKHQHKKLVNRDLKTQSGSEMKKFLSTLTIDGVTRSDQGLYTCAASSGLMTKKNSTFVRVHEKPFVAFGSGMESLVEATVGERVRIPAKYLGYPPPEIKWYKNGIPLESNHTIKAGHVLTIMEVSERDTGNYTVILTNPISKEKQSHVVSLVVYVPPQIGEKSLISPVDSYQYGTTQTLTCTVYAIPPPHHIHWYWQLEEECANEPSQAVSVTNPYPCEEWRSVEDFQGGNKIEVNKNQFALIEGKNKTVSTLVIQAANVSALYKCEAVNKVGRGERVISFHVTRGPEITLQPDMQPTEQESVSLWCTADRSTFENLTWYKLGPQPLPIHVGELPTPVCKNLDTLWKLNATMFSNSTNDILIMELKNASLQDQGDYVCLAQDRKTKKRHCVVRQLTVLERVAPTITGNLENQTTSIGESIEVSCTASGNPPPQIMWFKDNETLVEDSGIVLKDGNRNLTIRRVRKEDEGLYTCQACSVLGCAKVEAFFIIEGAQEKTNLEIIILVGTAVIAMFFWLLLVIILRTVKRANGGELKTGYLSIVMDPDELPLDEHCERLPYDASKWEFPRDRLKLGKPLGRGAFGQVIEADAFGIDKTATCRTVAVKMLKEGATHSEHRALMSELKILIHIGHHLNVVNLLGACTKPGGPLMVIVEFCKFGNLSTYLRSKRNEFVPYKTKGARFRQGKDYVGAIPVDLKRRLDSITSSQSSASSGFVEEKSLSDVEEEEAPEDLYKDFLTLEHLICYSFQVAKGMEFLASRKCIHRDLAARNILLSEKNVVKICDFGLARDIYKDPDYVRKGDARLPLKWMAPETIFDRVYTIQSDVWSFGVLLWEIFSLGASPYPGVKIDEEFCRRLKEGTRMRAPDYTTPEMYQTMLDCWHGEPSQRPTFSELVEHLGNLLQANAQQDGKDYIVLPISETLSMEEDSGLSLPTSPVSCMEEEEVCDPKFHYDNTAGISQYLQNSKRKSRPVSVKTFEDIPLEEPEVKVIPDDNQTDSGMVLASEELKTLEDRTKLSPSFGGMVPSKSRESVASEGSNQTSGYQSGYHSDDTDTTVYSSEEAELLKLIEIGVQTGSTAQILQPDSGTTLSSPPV
Experimental: as §3, §4, §5, §6, §7

[11] = target: T3, Aurora A (Homo sapiens, UniProt O14965); assay: Aurora A enzymatic activity test, FAM-labeled peptide, Caliper; format: biochemical; settings: FAM-labeled peptide substrate, read-out: Kinase-inhibiting activity IC50 Aurora A
T3 sequence (O14965 1-403): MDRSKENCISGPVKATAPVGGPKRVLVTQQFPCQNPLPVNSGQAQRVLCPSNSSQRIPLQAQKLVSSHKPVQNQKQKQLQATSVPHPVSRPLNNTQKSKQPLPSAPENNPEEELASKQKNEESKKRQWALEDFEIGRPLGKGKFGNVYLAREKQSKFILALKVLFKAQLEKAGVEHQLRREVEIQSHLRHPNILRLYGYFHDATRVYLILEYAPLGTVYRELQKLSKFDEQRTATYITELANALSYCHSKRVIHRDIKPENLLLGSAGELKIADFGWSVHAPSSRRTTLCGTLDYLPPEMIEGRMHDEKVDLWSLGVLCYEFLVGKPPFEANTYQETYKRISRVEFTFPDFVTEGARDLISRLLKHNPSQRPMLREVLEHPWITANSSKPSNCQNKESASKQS
Experimental: as §3, §4, §5, §6, §7

[12] = test system: TOV-112D ovarian cancer cells; assay: Cell proliferation, Cell Titer-Glo; format: cell-based; settings: Homo sapiens, TOV112D, 72 hours, read-out: Cellular inhibitory activity IC50 TOV-112D
Experimental: as §1, §2

[13] = test system: A2780 ovarian cancer cells; assay: Cell proliferation, Cell Titer-Glo; format: cell-based; settings: Homo sapiens, 72 hours, read-out: Cellular inhibitory activity IC50 A2780
Experimental: as §1, §2

[14] = test system: Hep3B liver cancer cells; assay: Cell proliferation, Cell Titer-Glo; format: cell-based; settings: Homo sapiens, 72 hours, read-out: Cellular inhibitory activity IC50 Hep3B
Experimental: as §1, §2

[15] = test system: KG-1 Leukemic cells; assay: Cell proliferation, Cell Titer-Glo; format: cell-based; settings: 72 hours, read-out: Cellular inhibitory activity IC50 KG-1
Experimental: as §1, §2

[16] = test system: D4475 breast cancer cells; assay: Cell proliferation, Cell Titer-Glo; format: cell-based; settings: 72 hours, read-out: Cellular inhibitory activity IC50 D4475
Experimental: as §1, §2

[17] = test system: HCC70 breast cancer cells; assay: Cell proliferation, Cell Titer-Glo; format: cell-based; settings: Homo sapiens, 72 hours, read-out: Cellular inhibitory activity IC50 HCC70
Experimental: as §1, §2

[18] = test system: HCC38 breast cancer cells; assay: Cell proliferation, Cell Titer-Glo; format: cell-based; settings: Homo sapiens, 72 hours, read-out: Cellular inhibitory activity IC50 HCC38
Experimental: as §1, §2

[19] = target: T1, Aurora B; assay: Aurora B kinase activity test, [γ-33P]-ATP filter membrane; format: biochemical; settings: 40 minutes at room temperature, read-out: Kinase-inhibiting activity IC50 Aurora B
Experimental: (§8) Test samples: compounds 1 to 4 in the present invention (the sequence numbers and structures thereof are shown in Table 1), dilution concentration: 0.03 μM-3 μM, a total of 10 concentration gradients.
as §4
(2) Test for Aurora B Kinase Activity:
Aurora B kinase protein and the compounds were sequentially added to the following reaction system: 8 mM MOPS pH 7.0, 0.2 mM EDTA, 30 μM […], 10 mM magnesium acetate and [γ-^33P]-ATP (radioactive activity was approximately 500 cpm/pmol). Then the above reaction system was added with ATP to start the reaction, and incubated at room temperature for 40 minutes. Then the reaction was terminated by adding a 3% phosphoric acid solution. 10 μL was taken out from the reaction system, and then added dropwise to a P30 filtermat filter membrane, washed three times in 75 mM phosphoric acid solution for 5 minutes, and then washed once with methanol. After the filter was dried, count was performed by a liquid crystal scintillation counter.

[20] = target: T2, KDR(VEGFR2); assay: KDR kinase activity test, [γ-33P]-ATP filter membrane; format: biochemical; settings: 40 minutes at room temperature, read-out: Kinase-inhibiting activity IC50 KDR (VEGFR2)
Experimental: as §8, §4
(3) Test for KDR Kinase Activity:
KDR kinase protein and the compounds were sequentially added to the following reaction system: 8 mM MOPS pH 7.0, 0.2 mM EDTA, 0.33 mg/mL myelin basic protein, 10 mM magnesium acetate and [γ-^33P]-ATP (radioactive activity was approximately 500 cpm/pmol). Then the above reaction system was added with ATP to start the reaction, and incubated at room temperature for 40 minutes. Then the reaction was terminated by adding a 3% phosphoric acid solution. 10 μL was taken out from the reaction system, and then added dropwise to a P30 filtermat filter membrane, washed three times in a 75 mM phosphoric acid solution for 5 minutes, and then washed once with methanol. After the filter was dried, count was performed by a liquid crystal scintillation counter.

[21] = target: T3, Aurora A; assay: Aurora A kinase activity test, [γ-33P]-ATP filter membrane; format: biochemical; settings: 40 minutes at room temperature, read-out: Kinase-inhibiting activity IC50 Aurora A
Experimental: as §8, §4
(1) Test for Aurora a Kinase Activity:
Aurora A kinase protein and the compounds were sequentially added to the following reaction system: 8 mM MOPS pH 7.0, 0.2 mM EDTA, 200 μM LRRASLG (Kemptide), 10 mM magnesium acetate and [γ-^33P]-ATP (radioactive activity was approximately 500 cpm/pmol). Then the above reaction system was added with ATP to start the reaction, and incubated at room temperature for 40 minutes. Then the reaction was terminated by adding a 3% phosphoric acid solution. 10 μL was taken out from the reaction system, and then added dropwise to a P30 filtermat filter membrane, washed three times in 75 mM phosphoric acid solution for 5 minutes, and then washed once with methanol. After the filter membrane was dried, count was performed by a liquid crystal scintillation counter.

Structure (SMILES) | IC50 [1] [nM] | IC50 [2] [nM] | IC50 [3] [nM] | IC50 [5] [nM] | IC50 [6] [nM] | IC50 [7] [nM] | IC50 [8] [nM] | IC50 [9] [nM] | IC50 [10] [nM] | IC50 [11] [nM] | IC50 [12] [nM] | IC50 [13] [nM] | IC50 [14] [nM] | IC50 [15] [nM] | further results
CCc1cc2c(cn1)C(c1ccccc1Cl)=Nc1c(n[nH]c1C)N2 [Control drug 1-2, reference compound] | 814 | 654 | 613 | 894 | 365 | 1380 | 126 | 4 | 3.2 | 1.6 | 2510 | 650 | 244 | 452 | IC50 [4]: 1380 nM; IC50 [17]: 1520 nM; IC50 [16]: 443 nM; IC50 [18]: 1100 nM
CCN1CCN(Cc2cc3c(cn2)C(c2ccccc2Cl)=Nc2c(n[nH]c2C)N3)CC1 [Compound 33] |  | 421 |  | 538 |  |  |  | 5.8 | 1.6 | 4.8 |  |  |  |  | IC50 [17]: 866 nM; IC50 [18]: 700 nM
Cc1[nH]nc2c1N=C(c1ccccc1Cl)c1cnc(S(C)(=O)=O)cc1N2 [Compound 1] |  |  |  |  |  |  |  |  |  |  |  |  |  |  | IC50 [19]: 30 nM; IC50 [20]: 1660 nM; IC50 [21]: 12 nM
COc1cc2c(cn1)C(c1ccccc1Cl)=Nc1c(n[nH]c1C)N2 [Compound 3] |  |  |  |  |  |  |  |  |  |  |  |  |  |  | IC50 [19]: 8 nM; IC50 [20]: 876 nM; IC50 [21]: 4 nM

Second part, led by results:

IC50 [1] [nM] | IC50 [2] [nM] | IC50 [3] [nM] | IC50 [5] [nM] | IC50 [6] [nM] | IC50 [7] [nM] | IC50 [8] [nM] | IC50 [9] [nM] | IC50 [10] [nM] | IC50 [11] [nM] | IC50 [12] [nM] | IC50 [13] [nM] | IC50 [14] [nM] | IC50 [15] [nM] | Structure (SMILES) | further results
266 | 509 | 620 | 732 | 266 | 578 | 80 | 15 | 8.6 | 4.8 |  |  |  |  | Cc1[nH]nc2c1N=C(c1ccccc1Cl)c1cnc(CN3CCOCC3)cc1N2 [Compound 35] | IC50 [4]: 1030 nM
752 |  | 433 |  | 146 |  | 19 | 7.1 | 0.91 | 1.2 | 650 | 34 | 67 | 5 | Cc1[nH]nc2c1N=C(c1ccccc1Cl)c1cnc(N3CCN(C)CC3)cc1N2 [Compound 22, 5-(2-chlorophenyl)-3-methyl-8-(4-methylpiperazin-1-yl)-2,10-dihydropyrazolo[4,3-b]pyrido[4,3-e][1,4]diazepine] | 
307 | 170 | 305 | 396 | 184 | 322 | 48 | 5 | 1.2 | 0.49 | 955 | 35 | 50 | 5 | Cc1[nH]nc2c1N=C(c1ccccc1Cl)c1cnc(N3CCOCC3)cc1N2 [Compound 29, 4-(5-(2-chlorophenyl)-3-methyl-2,10-dihydropyrazolo[4,3-b]pyrido[4,3-e][1,4]diazepin-8-yl)morpholine] | IC50 [16]: 113 nM
 |  |  |  |  |  | 81 | 7.5 | 2.3 | 1.3 |  |  |  | 45 | Cc1[nH]nc2c1N=C(c1ccccc1Cl)c1cnc(N3CCS(=O)(=O)CC3)cc1N2 [Compound 34] | 
